Assay results from EP3275863A1, “COMPOUNDS FOR TREATING CONGENITAL DISORDERS OF GLYCOSYLATION” (Universidad Autónoma de Madrid, priority 2016, dated 2018).
Residue numbers refer to the chain shown, from its start.

Columns and labels:
[1] = tested on: fibroblast lines from control lines or derived from patients; assay: Cell viability of the fibroblast cell lines; type: cell-based, human; conditions: 0.4µM, 2µM and 10µM
[2] = molecular target: T1, WT-PMM2 (Homo sapiens, UniProt O15305); assay: High-throughput differential scanning fluorimetry (DSF) screening, thermal denaturation; type: binding; conditions: 0.08 mg/mL of compound, 4% DMSO, vs DMSO control; read-out: protein Tm is increased (ΔTm)
T1 construct: His6 (N); made in house; host or cells: E. coli BL21 Star DE3
T1 sequence (O15305 1-246): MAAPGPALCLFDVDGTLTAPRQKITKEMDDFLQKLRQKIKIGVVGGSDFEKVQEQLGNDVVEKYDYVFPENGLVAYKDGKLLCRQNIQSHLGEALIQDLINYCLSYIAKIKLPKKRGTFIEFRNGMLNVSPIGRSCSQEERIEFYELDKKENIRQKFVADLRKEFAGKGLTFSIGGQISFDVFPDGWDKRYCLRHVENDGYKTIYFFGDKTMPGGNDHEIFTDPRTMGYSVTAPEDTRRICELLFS
Experimental: 10,000 molecular compounds from the MyriaScreen (Sigma-Aldrich) diversity collection were screened by determining the stabilization induced by the binding of different ligands (potential pharmacological chaperones) to the purified recombinant protein. The identification of ligands that stabilize WT-PMM2 thermally, was done by monitoring the thermal denaturation. The screening was performed by monitoring a shift in the fluorescence intensity at 610 nm using the LightCycler A480 (Roche).
PMM2 proteins were expressed in E.coli (BL21 Star™DE3 One Shot® Invitrogen). […]
Protein purification was performed using the ÄKTA Prime System (GE Healthcare, Little Chalfont, UK) at 4°C. […] The pure protein concentration was estimated by measuring the absorbance at 280 nm in a Nanodrop spectrophotometer (Thermo Scientific, Waltham, MA, USA) using the theoretical molar extinction coefficient estimated from the amino acid composition of HisPMM2 (23755 M^-1 cm^-1).
10,000 compounds of molecular weight ranging from 220 to 547 Da from the MyriaScreen diversity collection, dissolved in DMSO (Sigma Aldrich, St. Louis, MO, USA) to a final concentration of 2 mg/mL, were screened by DSF for identification of ligands that stabilize WT-PMM2 thermally. […] The experimental unfolding curves were then smoothed, normalized, and analyzed using in-house software. […]

[3] = tested on: WT-PMM2 and mutants p.Asp65Tyr, p.Pro113Leu, p.Arg162Trp and p.Thr237Met; assay: Degradation time course (half-life) in prokaryotic transcription-translation-coupled system; type: biochemical, human; conditions: mutant proteins with compound at the tested concentrations
Experimental: (§1) In order to deepen in the effect of Compound A on the PMM2 stability, degradation time courses were analyzed on WT protein and folding mutants with residual activity, p.Asp65Tyr, p.Arg162Trp and p.Thr237Met in presence of the compound. Additionally, we included in this assay the dimeric mutant p.Pro113Leu in order to study the effect of the compound on a mutant of this type.
(§2) Dimeric PMM2 used for thermal stability analysis was produced by the RTS 100 E. coli HY Kit transcription-translation-coupled system (5 PRIME, Hilden, Germany), following the manufacturer's recommendations. To produce PMM2 proteins, the reaction mix provided by the kit, together with 500 ng of the corresponding expression vector and 1 µl of the compound for reaching a final concentration of 40µM or 80µM or 1µl of DMSO. Reactions were incubated for 30 min at 30°C. The reaction was then stopped by adding 1 µl of DNase (1 mg/mL) and 1 µl of RNase (1 mg/mL). It was then further incubated at 37°C and 1.5 µl aliquots removed at different times. The compound was therefore present during the folding process. Proteins were immunodetected by Western blot and relative amounts of protein were determined by densitometry for the half-life determination.

[4] = molecular target: T2, p.Asp65Tyr (Homo sapiens, UniProt O15305, D65Y); assay: as above; type: biochemical; conditions: compound at 80µM
T2 construct: His6 (N); made in house; host or cells: RTS 100 E. coli HY cell-free transcription-translation system
T2 sequence (O15305 1-246 D65Y): T1 sequence (O15305 1-246) with D65Y
Experimental: as §1, §2

- ΔTm at 80 µg/mL [2]: 1.1 °C
- half-life increase, ranking among protein/concentration combinations [4]: the one with the higher shift
SMILES: O=C(Nc1cccc(Cl)c1)N(c1ccccn1)c1ccccn1 [Compound A, 3-(3-Chloro-phenyl)-1,1-di-pyridin-2-yl-urea]
- Cell viability [1]: high
- half-life of the mutant proteins compared with WT-PMM2 [3]: longer half-life than that recorded for the WT-PMM2
